One compound from US20210401957A1, “ROBO1 CAR-NK CELL CARRYING SUICIDE GENE, PREPARATION METHOD AND APPLICATION THEREOF” (Asclepius (Suzhou) Technology Company Group Co., Ltd., priority 2019, published 2021) can be followed below.

Structures are written as SMILES.

The test system of this assay is ROBO1-iCaspase9CAR-NK cells. The assay is described as follows: Apoptosis of ROBO1-iCaspase9 CAR-NK cells induced by medicament AP1903. It counts as cell-based, human. The settings on record: within 24 hours. As for the experimental part: Different amounts of medicament AP1903 were respectively added into the ROBO1 CAR-NK cells carrying the suicide gene (ATCG427B-1F7 and 2D5) after screening in Example 6 to test the effect thereof on apoptosis of the ROBO1 CAR-NK cells carrying the suicide gene (denoted with ATCG427B). Meanwhile, the medicament AP1903 was added into the ROBO1 CAR-NK cells as control, and divided into three experimental groups, i.e., cells treated by the medicament AP1903 with different concentrations (0 nM, 10 nM and 50 nM) for 2 hours, 4 hours and 24 hours. The experimental groups respectively treated for 4 hours and 24 hours were continuously cultured with fresh medium, and the cell viability was counted three days later, and the results were shown in FIG. 12. In addition, the 0 nM and 10 nM experimental groups treated for 4 hours were cultured in fresh medium for 24 hours and then photographed, and the results were shown in FIG. 13.

`CC[C@H](C(=O)N1CCCC[C@H]1C(=O)O[C@H](CCc1ccc(OC)c(OC)c1)c1cccc(OCC(=O)NCCNC(=O)COc2cccc([C@@H](CCc3ccc(OC)c(OC)c3)OC(=O)[C@@H]3CCCCN3C(=O)[C@@H](CC)c3cc(OC)c(OC)c(OC)c3)c2)c1)c1cc(OC)c(OC)c(OC)c1` [AP1903]: the “effect of AP1903 on the control cells (printed as ROBO1-iCaspase9CAR-NK cells)” value is “has no effect” and the “killing of ROBO1-iCaspase9CAR-NK cells by AP1903” value is given as “can effectively kill”.
